Reference: ChEMBL document CHEMBL1201862, “PubChem BioAssay data set” (2004)
The source made the active and inactive calls.

Experiments:
NADPH oxidase 1 = NADPH oxidase 1 (Homo sapiens, UniProt Q9Y5S8); format: functional, cell-based;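 note: Cell-based assay with luminescence read-out, IC50 derived from inhibitor dose-response curves; intracellular ROS from endogenous NOX1 in intact HT29 colon cancer cells; potency of inhibitors that lower the ROS luminescence signal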
14-3-3 protein gamma = 14-3-3 protein gamma (Homo sapiens, UniProt P61981); assay: modulators of 14-3-3 gamma client binding – dose response (AID 711); format: functional
Sequence of 14-3-3 protein gamma (P61981 whole entry, the tested form may be a part): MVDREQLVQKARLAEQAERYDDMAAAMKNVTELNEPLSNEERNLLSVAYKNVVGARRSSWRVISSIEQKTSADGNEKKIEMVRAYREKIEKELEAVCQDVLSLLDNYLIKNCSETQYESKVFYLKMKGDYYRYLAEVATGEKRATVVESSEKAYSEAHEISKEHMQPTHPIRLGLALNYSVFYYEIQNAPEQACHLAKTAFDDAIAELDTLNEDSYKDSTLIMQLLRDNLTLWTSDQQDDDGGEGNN

Estrogen receptor = molecular target: T1, Estrogen receptor (Homo sapiens, UniProt P03372); assay: potentiators of ERα–SRC-1 coactivator binding, dose response, biochemical, TR-FRET, ERα LBD (AID 737)
T1 sequence (P03372 whole entry): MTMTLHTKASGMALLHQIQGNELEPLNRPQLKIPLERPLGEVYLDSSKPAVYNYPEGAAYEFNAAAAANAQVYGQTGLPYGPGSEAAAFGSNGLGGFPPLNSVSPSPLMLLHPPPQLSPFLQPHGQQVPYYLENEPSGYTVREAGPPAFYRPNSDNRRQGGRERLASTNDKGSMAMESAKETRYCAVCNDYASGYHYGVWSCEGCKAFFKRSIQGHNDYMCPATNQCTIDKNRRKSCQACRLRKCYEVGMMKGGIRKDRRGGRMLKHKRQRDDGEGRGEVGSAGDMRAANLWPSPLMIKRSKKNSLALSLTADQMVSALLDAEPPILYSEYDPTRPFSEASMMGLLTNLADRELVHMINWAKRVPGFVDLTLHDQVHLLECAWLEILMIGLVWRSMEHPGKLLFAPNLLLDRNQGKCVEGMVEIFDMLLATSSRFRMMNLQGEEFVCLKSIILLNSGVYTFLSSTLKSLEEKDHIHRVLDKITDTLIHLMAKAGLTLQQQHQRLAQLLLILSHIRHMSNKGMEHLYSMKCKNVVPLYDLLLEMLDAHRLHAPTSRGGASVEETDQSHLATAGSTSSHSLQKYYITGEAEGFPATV

[1] = molecular target: Induced myeloid leukemia cell differentiation protein Mcl-1 (Homo sapiens, UniProt Q07820); assay: MCL1-BIM BH3 interaction inhibitors, dose response, biochemical, fluorescence polarization, BIM-BH3 peptide, 1536-well (AID 2217)
Sequence of Induced myeloid leukemia cell differentiation protein Mcl-1 (Q07820 whole entry): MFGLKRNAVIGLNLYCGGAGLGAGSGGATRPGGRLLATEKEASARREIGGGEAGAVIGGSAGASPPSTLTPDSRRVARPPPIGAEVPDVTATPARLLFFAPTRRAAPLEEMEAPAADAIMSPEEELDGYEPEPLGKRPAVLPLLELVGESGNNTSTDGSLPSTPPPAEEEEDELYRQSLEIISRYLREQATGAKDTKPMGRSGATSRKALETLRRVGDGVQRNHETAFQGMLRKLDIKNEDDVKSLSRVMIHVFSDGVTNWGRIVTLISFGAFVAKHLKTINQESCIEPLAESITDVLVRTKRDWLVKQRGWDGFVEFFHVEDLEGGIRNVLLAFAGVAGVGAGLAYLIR

Bcl-2-like protein 1 = Bcl-2-like protein 1 (Homo sapiens, UniProt Q07817); assay: BCL-XL inhibitors, dose response, selectivity assay for MCL1 inhibitor project, biochemical, fluorescence polarization, 1536-well (AID 2218)
Sequence of Bcl-2-like protein 1 (Q07817 whole entry): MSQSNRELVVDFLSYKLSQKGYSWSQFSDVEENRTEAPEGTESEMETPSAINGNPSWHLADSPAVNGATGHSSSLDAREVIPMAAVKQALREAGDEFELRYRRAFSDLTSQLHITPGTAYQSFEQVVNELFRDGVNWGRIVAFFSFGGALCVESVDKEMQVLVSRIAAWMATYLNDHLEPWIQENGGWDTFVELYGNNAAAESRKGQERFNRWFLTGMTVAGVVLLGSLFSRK

[2] = molecular target: Aryl hydrocarbon receptor (Homo sapiens, UniProt P35869); assay: Luminescence-based cell-based high throughput dose response assay for activators of the Aryl Hydrocarbon Receptor (AHR). [Related pubchem assays: 2796 (Primary screen (AHR activators in singlicate)), 2845 (Confirmation screen (AHR activators in triplicate)), 434939 (Counterscreen (PXR activators in triplicate)), 2804 (Summary (AHR activators))]; format: ADME
Sequence of Aryl hydrocarbon receptor (P35869 whole entry, the tested form may be a part): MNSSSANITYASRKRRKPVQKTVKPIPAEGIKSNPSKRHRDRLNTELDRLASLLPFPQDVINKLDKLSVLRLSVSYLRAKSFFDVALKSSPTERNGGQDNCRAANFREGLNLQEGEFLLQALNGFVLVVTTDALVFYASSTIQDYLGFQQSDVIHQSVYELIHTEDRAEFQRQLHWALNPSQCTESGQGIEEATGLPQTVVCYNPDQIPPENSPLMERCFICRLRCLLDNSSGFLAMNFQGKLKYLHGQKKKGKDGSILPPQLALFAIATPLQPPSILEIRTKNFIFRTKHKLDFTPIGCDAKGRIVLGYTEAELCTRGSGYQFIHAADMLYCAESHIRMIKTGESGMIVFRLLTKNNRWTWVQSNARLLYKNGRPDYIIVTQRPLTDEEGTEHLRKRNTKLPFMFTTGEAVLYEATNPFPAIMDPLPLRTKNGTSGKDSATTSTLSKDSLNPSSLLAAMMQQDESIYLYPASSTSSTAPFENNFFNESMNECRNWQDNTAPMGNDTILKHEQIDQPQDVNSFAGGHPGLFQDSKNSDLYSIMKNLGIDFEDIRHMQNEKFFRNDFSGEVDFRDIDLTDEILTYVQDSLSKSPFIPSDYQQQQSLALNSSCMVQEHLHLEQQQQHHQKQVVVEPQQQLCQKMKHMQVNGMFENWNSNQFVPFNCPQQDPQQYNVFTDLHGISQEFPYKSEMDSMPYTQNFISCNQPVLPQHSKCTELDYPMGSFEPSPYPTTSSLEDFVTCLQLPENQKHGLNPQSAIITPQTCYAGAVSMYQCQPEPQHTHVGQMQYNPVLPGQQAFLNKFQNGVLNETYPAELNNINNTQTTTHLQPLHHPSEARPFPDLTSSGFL

[3] = molecular target: T2, RNA-binding protein pos-1 (Caenorhabditis elegans, UniProt G5EF15); assay: inhibitors of POS-1/mex-3 RNA binding, dose response, biochemical, fluorescence polarization (AID 1964);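 note: purified POS-1 fused to maltose binding protein made in E. coli; potency of compounds blocking POS-1 binding to fluorescent RNA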
T2 sequence (G5EF15 whole entry): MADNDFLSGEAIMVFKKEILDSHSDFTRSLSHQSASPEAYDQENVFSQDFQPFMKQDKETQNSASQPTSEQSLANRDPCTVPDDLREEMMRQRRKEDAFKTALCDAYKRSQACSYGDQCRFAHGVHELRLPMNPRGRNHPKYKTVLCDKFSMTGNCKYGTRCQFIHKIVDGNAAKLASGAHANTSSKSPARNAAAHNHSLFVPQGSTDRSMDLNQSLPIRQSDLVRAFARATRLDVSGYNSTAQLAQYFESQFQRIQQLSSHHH

[4] = molecular target: T3, Zinc finger protein mex-5 (Caenorhabditis elegans, UniProt Q9XUB2); assay: MEX-5/TCR-2 RNA interaction inhibitors, dose response, biochemical, C. elegans, fluorescence polarization (AID 1960)
T3 sequence (Q9XUB2 whole entry): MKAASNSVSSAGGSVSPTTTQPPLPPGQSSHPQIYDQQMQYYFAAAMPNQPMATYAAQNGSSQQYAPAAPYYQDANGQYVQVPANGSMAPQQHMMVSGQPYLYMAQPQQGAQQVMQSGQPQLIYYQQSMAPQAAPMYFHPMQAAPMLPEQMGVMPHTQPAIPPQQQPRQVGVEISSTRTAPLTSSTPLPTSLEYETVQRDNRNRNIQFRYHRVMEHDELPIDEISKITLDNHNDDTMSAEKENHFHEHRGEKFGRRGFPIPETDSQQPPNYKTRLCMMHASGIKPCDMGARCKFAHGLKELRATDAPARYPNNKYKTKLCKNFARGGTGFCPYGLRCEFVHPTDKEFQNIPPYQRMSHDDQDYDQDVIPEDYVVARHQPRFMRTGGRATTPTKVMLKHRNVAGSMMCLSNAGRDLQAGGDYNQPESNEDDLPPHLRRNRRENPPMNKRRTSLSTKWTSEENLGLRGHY

[5] = molecular target: Heat shock protein HSP 90-alpha (Homo sapiens, UniProt P07900); format: functional, organism-based
[6] = molecular target: T4, Long-chain-fatty-acid--AMP ligase FadD28 (Mycobacterium tuberculosis, UniProt P9WQ59); assay: Fluorescence polarization aasay to screen for inhibitors that compete for the binding of FadD28 to a bisubstrate Measured in Biochemical System Using Plate Reader - 2147-01_Inhibitor_Dose_CherryPick_Activity.; format: functional, Mycobacterium tuberculosis H37Rv
T4 sequence (P9WQ59 whole entry): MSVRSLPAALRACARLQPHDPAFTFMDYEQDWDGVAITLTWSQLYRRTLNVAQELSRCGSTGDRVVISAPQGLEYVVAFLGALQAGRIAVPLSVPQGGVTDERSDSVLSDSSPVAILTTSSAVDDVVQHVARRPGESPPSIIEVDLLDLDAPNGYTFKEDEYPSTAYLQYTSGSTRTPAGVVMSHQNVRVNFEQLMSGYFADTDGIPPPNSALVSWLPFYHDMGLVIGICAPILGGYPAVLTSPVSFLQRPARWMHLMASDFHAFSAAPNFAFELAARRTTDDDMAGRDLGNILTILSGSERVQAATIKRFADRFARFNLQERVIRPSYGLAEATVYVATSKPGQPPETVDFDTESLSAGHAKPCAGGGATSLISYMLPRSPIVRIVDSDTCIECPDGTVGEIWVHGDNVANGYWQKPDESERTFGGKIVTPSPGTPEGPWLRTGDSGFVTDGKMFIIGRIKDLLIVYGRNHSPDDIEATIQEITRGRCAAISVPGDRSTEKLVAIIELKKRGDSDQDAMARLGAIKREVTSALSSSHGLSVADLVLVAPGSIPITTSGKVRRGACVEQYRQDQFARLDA

[7] = inhibitors of intracellular T. cruzi replication, confirmation, NIH3T3 host cells, beta-gal luminescence (AID 2044); format: functional, cell-based;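 note: intracellular parasites grown in NIH/3T3 mouse fibroblasts as host cells; luminescent beta-galactosidase reporter signal from transgenic T. cruzi replicating inside host cells; inhibitors lower the luminescence signal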
[8] = cytotoxicity toward NIH3T3 fibroblasts, dose response, counter-screen, cell-based, ATP luminescence, mouse fibroblasts (AID 2010); format: functional;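 note: cells exposed to compound for about 90 hours before reading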
INS1 = assay: beta cell apoptosis inhibitors, cytokine rescue, dose response, luminescence, retest (AID 449756); format: functional, cell-based; details: Rattus norvegicus;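 note: cell death triggered by IL-1 beta plus TNF-alpha plus IFN-gamma mixture; protective hits raise ATP signal compared with cytokine alone wells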
Melanocortin receptor 4 = Melanocortin receptor 4 (Homo sapiens, UniProt P32245); format: functional, cell-based;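 note: Cell-based assay with luminescence read-out, confirmatory dose-response testing for agonist activity of biased ligands at MC4R; human U2OS cells with tagged receptor and beta-arrestin; potency of agonists that increase receptor coupling to beta-arrestin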
Sequence of Melanocortin receptor 4 (P32245 whole entry): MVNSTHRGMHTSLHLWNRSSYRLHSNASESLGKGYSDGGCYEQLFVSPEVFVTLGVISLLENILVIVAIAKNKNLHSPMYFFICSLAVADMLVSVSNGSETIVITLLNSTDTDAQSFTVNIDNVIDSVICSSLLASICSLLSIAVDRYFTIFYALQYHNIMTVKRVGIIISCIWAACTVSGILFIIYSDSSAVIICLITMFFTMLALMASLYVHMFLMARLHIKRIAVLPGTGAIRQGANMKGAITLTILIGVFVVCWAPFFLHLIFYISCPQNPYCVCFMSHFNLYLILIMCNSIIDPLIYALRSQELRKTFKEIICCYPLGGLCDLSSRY

Cytochrome P450 2C9 = Cytochrome P450 2C9 (Homo sapiens, UniProt P11712)
Sequence of Cytochrome P450 2C9 (P11712 whole entry): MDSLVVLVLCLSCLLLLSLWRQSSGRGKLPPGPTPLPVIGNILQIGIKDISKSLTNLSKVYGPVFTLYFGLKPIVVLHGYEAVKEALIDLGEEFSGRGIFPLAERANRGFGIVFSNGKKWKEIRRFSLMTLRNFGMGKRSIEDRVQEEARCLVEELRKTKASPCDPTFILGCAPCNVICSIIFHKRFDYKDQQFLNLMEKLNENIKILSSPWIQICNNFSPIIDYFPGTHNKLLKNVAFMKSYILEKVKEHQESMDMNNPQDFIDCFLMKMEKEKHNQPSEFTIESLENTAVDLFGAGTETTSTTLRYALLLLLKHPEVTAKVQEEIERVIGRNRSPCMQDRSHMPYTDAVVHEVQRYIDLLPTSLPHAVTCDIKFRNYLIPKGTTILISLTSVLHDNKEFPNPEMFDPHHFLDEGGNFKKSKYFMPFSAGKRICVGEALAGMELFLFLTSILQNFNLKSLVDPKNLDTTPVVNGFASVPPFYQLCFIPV

[9] = molecular target: T5, Calpain-2 catalytic subunit (Sus scrofa, UniProt P43367); assay: pig calpain II inhibitor potency, dose response, biochemical, fluorogenic peptide substrate (AID 1420); format: functional
T5 sequence (P43367 whole entry): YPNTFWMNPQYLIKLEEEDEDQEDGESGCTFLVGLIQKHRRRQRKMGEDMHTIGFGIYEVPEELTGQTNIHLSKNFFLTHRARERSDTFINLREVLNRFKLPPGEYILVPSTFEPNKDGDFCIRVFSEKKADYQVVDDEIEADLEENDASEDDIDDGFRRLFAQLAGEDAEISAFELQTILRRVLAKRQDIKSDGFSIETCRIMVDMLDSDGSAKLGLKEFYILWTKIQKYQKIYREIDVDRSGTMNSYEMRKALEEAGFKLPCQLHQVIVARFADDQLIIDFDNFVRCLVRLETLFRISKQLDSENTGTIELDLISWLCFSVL

Cytochrome P450 2C19 = Cytochrome P450 2C19 (Homo sapiens, UniProt P33261); assay: qHTS Assay for Inhibitors and Substrates of Cytochrome P450 2C19. [Related pubchem assays: 410 ]; format: ADME; details: read-out: Potency
[10] = Luminescence Cell-Based Dose Confirmation HTS to Identify Activators of 5'UTR Stem-Loop Driven Alpha-Synuclein mRNA Translation in H4 Neuroglioblastoma Cells. [Related pubchem assays: 1829 (Project Summary), 1814 (Primary HTS)]; format: functional
[11] = Luminescence Cell-Based Dose Response HTS to Identify Activators of Luciferase Translation or Activity in H4 […] Cells. [Related pubchem assays: 1829 (Project Summary), 1814 (Primary HTS)]; format: functional
H4 = assay: Luminescence Cell-Based Dose Response HTS to Identify Activators of 5'UTR Stem-Loop Driven Prion Protein mRNA Translation in H4 Neuroglioblastoma Cells. [Related pubchem assays: 1829 (Project Summary), 1814 (Primary HTS)]; format: functional; details: Homo sapiens
Large T antigen = Large T antigen (Simian virus 40, UniProt P03070); format: functional, Betapolyomavirus macacae;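 note: Confirmatory-stage PubChem screen for compounds that inhibit SV40 T antigen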
Sequence of Large T antigen (P03070 whole entry): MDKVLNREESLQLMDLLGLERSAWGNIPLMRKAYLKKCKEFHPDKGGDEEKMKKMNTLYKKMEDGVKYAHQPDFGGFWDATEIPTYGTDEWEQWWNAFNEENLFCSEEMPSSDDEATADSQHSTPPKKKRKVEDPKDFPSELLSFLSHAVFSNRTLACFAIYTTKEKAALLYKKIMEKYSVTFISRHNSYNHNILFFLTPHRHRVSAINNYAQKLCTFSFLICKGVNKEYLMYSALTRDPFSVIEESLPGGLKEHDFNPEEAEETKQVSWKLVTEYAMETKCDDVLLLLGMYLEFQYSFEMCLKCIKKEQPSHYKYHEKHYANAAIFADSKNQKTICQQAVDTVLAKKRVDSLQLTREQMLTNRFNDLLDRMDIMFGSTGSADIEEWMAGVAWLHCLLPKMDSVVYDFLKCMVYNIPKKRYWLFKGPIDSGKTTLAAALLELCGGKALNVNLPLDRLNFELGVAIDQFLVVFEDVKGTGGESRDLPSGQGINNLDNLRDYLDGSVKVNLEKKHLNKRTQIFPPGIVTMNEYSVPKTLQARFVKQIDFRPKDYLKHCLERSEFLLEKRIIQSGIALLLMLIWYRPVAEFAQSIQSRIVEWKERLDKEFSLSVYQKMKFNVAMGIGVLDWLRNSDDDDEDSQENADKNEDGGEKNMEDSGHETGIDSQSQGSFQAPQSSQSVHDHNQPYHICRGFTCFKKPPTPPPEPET

Estrogen receptor beta = Estrogen receptor beta (Homo sapiens, UniProt Q92731); assay: ERβ–SRC-3 coactivator interaction inhibitors, confirmation, orthogonal assay, biochemical, ELISA, streptavidin-HRP readout (AID 1060)
Sequence of Estrogen receptor beta (Q92731 whole entry): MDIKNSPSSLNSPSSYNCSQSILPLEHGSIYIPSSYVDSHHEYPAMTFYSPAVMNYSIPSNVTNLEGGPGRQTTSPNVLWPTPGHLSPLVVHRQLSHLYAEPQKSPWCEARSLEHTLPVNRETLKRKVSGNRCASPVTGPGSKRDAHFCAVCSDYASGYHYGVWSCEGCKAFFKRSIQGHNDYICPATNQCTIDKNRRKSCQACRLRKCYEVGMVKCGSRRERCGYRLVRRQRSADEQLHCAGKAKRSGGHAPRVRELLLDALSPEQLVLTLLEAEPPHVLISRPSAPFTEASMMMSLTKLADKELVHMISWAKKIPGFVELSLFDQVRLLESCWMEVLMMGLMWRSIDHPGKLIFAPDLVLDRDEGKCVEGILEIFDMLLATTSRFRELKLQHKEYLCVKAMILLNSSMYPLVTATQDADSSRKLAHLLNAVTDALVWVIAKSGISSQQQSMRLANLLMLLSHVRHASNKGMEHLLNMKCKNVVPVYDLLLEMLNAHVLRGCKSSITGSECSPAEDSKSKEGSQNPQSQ

Cytochrome P450 3A4 = Cytochrome P450 3A4 (Homo sapiens, UniProt P08684);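 note: CYP3A4 tested as one member of a cytochrome P450 panel screen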
Sequence of Cytochrome P450 3A4 (P08684 whole entry): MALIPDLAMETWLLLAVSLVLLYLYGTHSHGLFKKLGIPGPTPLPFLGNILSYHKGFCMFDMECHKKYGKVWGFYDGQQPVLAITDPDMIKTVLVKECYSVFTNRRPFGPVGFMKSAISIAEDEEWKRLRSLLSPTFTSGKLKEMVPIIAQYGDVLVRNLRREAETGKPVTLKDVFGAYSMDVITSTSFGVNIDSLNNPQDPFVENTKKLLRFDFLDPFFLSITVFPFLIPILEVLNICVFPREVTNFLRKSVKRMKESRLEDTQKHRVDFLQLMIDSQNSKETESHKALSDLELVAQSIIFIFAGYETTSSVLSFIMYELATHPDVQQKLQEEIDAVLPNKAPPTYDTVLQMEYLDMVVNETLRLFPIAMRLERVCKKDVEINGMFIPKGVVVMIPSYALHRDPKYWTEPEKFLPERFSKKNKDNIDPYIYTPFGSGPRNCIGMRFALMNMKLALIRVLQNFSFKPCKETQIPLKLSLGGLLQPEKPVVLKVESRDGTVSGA

Vero = assay: host cell cytotoxicity of antiviral hits, dose response, cytotoxicity control for West Nile virus antiviral project, secondary assay (AID 1650); format: functional; details: Chlorocebus sabaeus
[12] = Luminescence Cell-Based Dose Retest to Confirm Inhibitors of Cancer Stem Cells. [Related pubchem assays (depositor defined):AID2717, AID2721]; format: functional; details: Homo sapiens

Sequence of NADPH oxidase 1 (Q9Y5S8 whole entry): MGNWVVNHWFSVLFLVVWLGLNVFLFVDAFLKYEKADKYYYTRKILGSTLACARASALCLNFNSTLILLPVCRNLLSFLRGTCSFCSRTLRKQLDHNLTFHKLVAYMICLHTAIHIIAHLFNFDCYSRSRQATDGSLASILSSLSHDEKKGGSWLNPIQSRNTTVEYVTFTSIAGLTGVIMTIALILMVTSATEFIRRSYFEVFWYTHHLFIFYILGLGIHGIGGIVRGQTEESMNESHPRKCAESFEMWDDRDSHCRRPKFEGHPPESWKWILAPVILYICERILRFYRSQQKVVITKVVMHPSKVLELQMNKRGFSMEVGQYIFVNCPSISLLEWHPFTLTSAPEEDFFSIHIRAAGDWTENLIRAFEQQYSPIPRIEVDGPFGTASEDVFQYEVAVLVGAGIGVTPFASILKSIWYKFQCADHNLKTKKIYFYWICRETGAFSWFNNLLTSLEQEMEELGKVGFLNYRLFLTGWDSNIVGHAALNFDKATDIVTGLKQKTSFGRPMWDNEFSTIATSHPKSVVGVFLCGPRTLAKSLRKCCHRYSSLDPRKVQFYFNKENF

In the case of CC(=O)Nc1ccc(/C=N/Nc2c(Cl)cc(Cl)cc2Cl)cc1, the IC50 (NADPH oxidase 1) is reported as > 17 µM (not active).
In the case of C/C(=N\O)C(=O)NCc1ccccn1, the IC50 (14-3-3 protein gamma) is reported as > 50 µM (not active).
For CC1Cc2ccccc2N1C(=O)CSc1nnc(-c2ccc(S(=O)(=O)N3CCCC3)cc2)o1 (stereo not drawn), the EC50 (Estrogen receptor) was 7.79 µM (active).
In the case of COc1cc(NC(=O)c2noc3c2CCC3)c(OC)cc1Cl, the IC50 [1] is reported as 11.1 µM (not active) and the IC50 (Bcl-2-like protein 1) is reported as > 109 µM (not active).
With COc1cc(/C=N/NC(=O)c2cccc(NC(=O)c3ccccc3)c2)ccc1O the EC50 [2] was 5.62 µM (active).
In the case of COc1ccc(C2=CC3=C(Br)C(=O)C(C)(OC(=O)c4cccs4)C(=O)C3=CO2)cc1 (stereo not drawn), the EC50 [3] is reported as 32.8 µM (active), the EC50 [4] is reported as 29.1 µM (active) and the IC50 [1] is reported as 16.8 µM (not active). The IC50 (Bcl-2-like protein 1) was > 109 µM (not active), the AC50 [5] was 2.35 µM (active) and the AC50 [6] was > 100 µM (inactive).
For Clc1ccc(C[n+]2c(-c3ccccc3)cc(-c3ccccc3)cc2-c2ccccc2)cc1.[O-][Cl+3]([O-])([O-])[O-], the EC50 [7] was < 100 nM (active), the EC50 [8] was > 60 µM (not active) and the AC50 (INS1) was 2.05 µM (active). The EC50 (Melanocortin receptor 4) was > 89.2 µM (inactive) and the EC50 (cells) was 173 nM (active).
With COc1ccccc1-c1nnc(NC(C)=O)s1 the EC50 [2] was 11 µM (not active) and the AC50 (Cytochrome P450 2C9) was “inconclusive”.
In the case of COc1ccc(-c2nc(-c3ccc(OC)c(OC)c3)[nH]c2-c2ccc(OC)cc2)cc1, the IC50 (NADPH oxidase 1) is reported as > 17 µM (not active).
For COc1ccccc1-n1nnnc1SCc1cc2c(cc1Br)OCO2, the IC50 (14-3-3 protein gamma) was > 50 µM (not active) and the IC50 [9] was 1.36 µM (not active).
For COc1ccc(OC2C=CC(C#Cc3ccc(Br)cc3)OC2CO)c(C(C)(C)C)c1 (stereo not drawn), the AC50 (Cytochrome P450 2C19) was 3.16 µM (inconclusive).
For NC(=O)Cn1c(=O)n(Cc2ccco2)c(=O)c2c3c(sc21)CCCCC3, the EC50 [10] was > 120 µM (not active), the EC50 [11] was > 120 µM (not active) and the EC50 (H4) was > 120 µM (not active). The IC50 (Large T antigen) was 33 µM (active), the IC50 (Estrogen receptor beta) was < 23 nM (not active) and the AC50 (Cytochrome P450 3A4) was 25.1 µM (inconclusive).
For Cc1ccc2nc(NC(=O)c3cccc(-c4cc5ccccc5oc4=O)c3)sc2c1, the CC50 (Vero) was > 100 µM (active), the EC50 [7] was 1090 nM (active) and the EC50 [8] was > 60 µM (not active). For the same compound, the AC50 [12] was 1.71 µM (active).
